Patent US5707821A, “Identification of phospholipase A2 inhibitors in Aβ peptide-mediated neurodegenerative disease” (priority 1995, dated 1998)
pIC50: −log10 of the molar value.

What was measured:
human cortical neurons [1] = assay: Aβ neurotoxicity in human cortical neurons (alamarBlue), 2 h pretreatment with inhibitor; format: cell-based; conditions: for Emax: 72 h, read-out: Max Inh
Protocol: (§1) Cultures of human cortical or hippocampal neurons were prepared using a modification of the procedure described in P. Seubert et al. (1992), Nature 359:325-327. Cortical or hippocampal tissue was dissociated by incubation in a trypsin/EDTA solution (0.05% trypsin +0.53 mM EDTA in HBSS; Gibco) for 20 minutes at 37° C. The trypsin was then inactivated by resuspending the cells in serum-containing medium (MEM/FBS): Modified Eagle's Medium (MEM) containing 1% glucose, 1 mM sodium pyruvate, 1 mM glutamine, and supplemented with 10% fetal bovine serum (Gibco). Cells were then pelleted by centrifugation and resuspended in a chemically-defined medium (MEM/B27): MEM containing B27 supplement (Gibco) in place of FBS. Polyethyleneimine (PEI)-coated 6.4-mm (96-well) dishes were rinsed once with MEM/FBS, and then seeded at 0.75-1.25×10^5 cells per well in 0.1 ml MEM/B27. Cultures were maintained in a H2 O-saturated incubator with an atmosphere of 95% air/5% CO2 at 37° C. The culture medium was exchanged twice weekly.
Amyloid-β (Aβ) stock solutions were prepared as 1 mM stocks in sterile ddH2 O immediately prior to addition to cultures. Rat cortical neurons were exposed to Aβ by removing the culture medium and replacing it with DMEM/N2 or DMEM/B27 containing Aβ1-40. Human cortical neurons were exposed to Aβ by removing the culture medium and replacing it with MEM, MEM/N2, or MEM/B27 containing Aβ1-40. Cultures were maintained for 2-4 days before neuronal survival was quantified using alamarBlue™.
(§2) The alamarBlue™ assay incorporated a proprietary fluorometric/colorimetric metabolic indicator (Alamar Biosciences, Inc.). Viable cells convert alamarBlue™ from an oxidized (non-fluorescent, blue) form to a reduced (fluorescent, red) form. Assays were performed by replacing the culture media with a 10% alamarBlue™ solution in DMEM (rat cortical cultures) or MEM (human cortical cultures). Reduction of alamarBlue™ was determined spectrofluorometrically using a Millipore Cytofluor 2350 Scanner (excitation, […]; emission, 590 nm) and CytoCalc™ software (Millipore Corporation).
The effect of pretreating human cortical neuron cultures with the benzenesulfonamide PLA2 inhibitors and arachidonyl trifluoromethyl ketone prior to exposure to a neurotoxic concentration of Aβ1-40 was determined.
(§3) Human cortical neurons were treated with 50 μM Aβ1-40 and various inhibitors of PLA2. Compounds were added 2 hours prior to Aβ1-40 treatment at concentrations of 390 nM to 100 μM, and were then re-added at the time of Aβ1-40 treatment. Compounds were also added in an identical manner to neuronal cultures in the absence of Aβ1-40. Neuronal survival was determined after 3 days of treatment by alamarBlue®. IC50 is the dose of compound that inhibited Aβ-mediated neurotoxicity by 50%. […] Data represents the mean ± SD (n=3). ND, not detected at the concentration range used.

[2] = system: TNF-α release by cultured human cortical microglia; assay: TNF-α release (ELISA) from Aβ1-40-stimulated human microglia; format: cell-based
Protocol: (§4) Cultures of human cortical or hippocampal astrocytes and microglia were prepared using a modification of the procedure described for cortical neurons. Cortical tissue from fetuses of 16 to 20 weeks of gestation was washed 3 times in Ca^2+ /Mg^2+ free Hanks balanced salt solution (CMF HBSS) and then dissociated by repeated pipetting. The solution was brought to a final volume of 80 ml CMF HBSS for approximately 10 ml of tissue. DNase (Sigma) was added to a final concentration of 0.05 mg/ml. 20 ml of the solution was passed through one 100 μm nylon cell strained (Falcon). The cells were then centrifuged for 5 minutes at 200×G in an IEC Clinical Centrifuge and resuspended in a trypsin/EDTA solution (0.05% trypsin+0.53 mM EDTA in HBSS; Gibco) and incubated for 20 minutes at 37°C. (10 ml of trypsin was added per 2-3 ml of tissue). The trypsin was then inactivated by adding (MEM/FBS): Modified Eagle's Medium (MEM) containing 1% glucose, 1 mM sodium pyruvate, 1 mM glutamine, and supplemented with 10% fetal bovine serum (JRH). After adding a final concentration of 0.05 mg/ml DNase the cells were resuspended and then pelleted by centrifugation and resuspended in MEM/FBS. 1.6×10^8 cells were seeded in a T-150 tissue culture flask coated with polyethyleneimine (PEI). (10% PEI (Sigma) was diluted 1:10 in H2 O, filtered through a […] unit and then diluted into 150 mM sodium borate pH 8.5 at 1:100. The flasks were coated overnight at room temperature, washed two times in PBS and coated with 20 ml/flask of MEM/FBS at 37° C. for at least one hour prior to plating cells.) Cultures were maintained in a H2 O-saturated incubator with an atmosphere of 95% air/5% CO2 at 37° C. The culture medium was changed one and four days after plating and the cultures were then left undisturbed for at least one week. After approximately two weeks in vitro, the flasks were gently shaken and floating microglia were collected and centrifuged for 5 minutes at 200×G in an IEC Clinical Centrifuge. The microglia were reseeded in 96 well tissue culture plates at a density of 5,000-40,000 cells/well in 125 μl in MEM/FBS. Astrocyte cultures were prepared by multiple passaging of the established mixed brain cell cultures. Each T-150 was incubated for 3-4 minutes at 37°C. with a trypsin/EDTA solution (see above). The trypsin was then inactivated by adding MEM/FBS. The cells were triturated and then pelleted by centrifugation and resuspended in MEM/FBS. The cells from one T-150 were seeded at a 1:30 to 1:5 dilution in T-150's not coated. Just prior to confluency the cells were repassaged by trypsinization as described above. This process was repeated until the cultures were >98% pure astrocytes.
(§5) Cultured microglial cells were treated with 50 μM of Aβ1-40 or vehicle only (Control). The levels of IL-1β, IL-6, and TNF-α released into the culture medium were determined by ELISA assay (R&D Systems) according to manufacturer's instructions.
(§6) The effect of two benzenesulfonamide inhibitors of PLA2 (European Patent Application 468 054) were examined on the activation of microglial cells by Aβ1-40 as in Example 1.
(§7) The effects of the benzenesulfonamide PLA2 inhibitor AN20606 and the selective cytosolic PLA2 inhibitor arachidonyl trifluoromethyl ketone (AN20579) were examined in cultured human cortical microglia for their selectivity for inhibiting microglia activation mediated by amyloid-βpeptide and lipopolysaccharides (LPS). LPS are a major constituent of the cell wall of gama-negative bacteria and are extensively used for generating inflammatory responses in cultured cells and in vivo.

[3] = system: IL-1β release by cultured human cortical microglia; assay: IL-1 release from LPS-stimulated human cortical microglia; format: cell-based
Protocol: as §4, §7

[4] = system: IL-1β release by cultured human cortical microglia; assay: IL-1β release (ELISA) from Aβ1-40-stimulated human microglia; format: cell-based
Protocol: as §4, §5, §6, §7

[5] = system: TNFα release by cultured human cortical microglia; assay: TNF release from LPS-stimulated human cortical microglia; format: cell-based
Protocol: as §4, §7

Ca^+2 -independent PLA2 = conditions: Ackermann et al. (1995); cited from earlier work
cPLA2 = conditions: Street et al. (1993); cited from earlier work
human cortical neurons [6] = assay: Compound toxicity to human cortical neurons in absence of Aβ1-40, added as in pretreatment protocol; format: cell-based; conditions: no Aβ1-40, 3 days, n=3
Protocol: as §1, §2, §3

[7] = Homo sapiens, Cortical neurone, 50 μM Aβ1-40, compound 390 nM to 100 μM, 2 h pretreatment and re-added with Aβ, 3 days, n=3
[8] = 50 μM Aβ1-40, inhibitor 20 μM where present
[9] = 10 ng/ml LPS, inhibitor 20 μM where present

## C[C@H]1c2cccc(O)c2C(O)=C2C(=O)[C@]3(O)C(O)=C(C(N)=O)C(=O)[C@@H](N(C)C)[C@@H]3[C@@H](O)[C@@H]21 [Doxycycline]
Human cortical neurons [1]; [7]
  Emax: 0%

## CCCCC/C=C\C/C=C\C/C=C\C/C=C\CCCC(=O)C(F)(F)F [AACOCF3, arachidonyl trifluoromethyl ketone]
[2]; [8]
  TNF Released: 54.8 ± 9.4 pg/mL
[2]; Aβ1-40 versus LPS stimulation
  Aβ1-40-mediated TNFα release, selectivity versus LPS (in words): selectively inhibited
[2]; Homo sapiens, Microglia, 50 μM Aβ1-40 + 20 μM inhibitor, read-out: TNF Released, percent in parentheses (relative to Aβ1-40 alone)
  activity at 20 µM: 52%
[3]; [9]
  IL-1 Released: 51 ± 6.4 pg/mL
[3]; Homo sapiens, Microglia, 10 ng/ml LPS + 20 μM inhibitor, read-out: IL-1 Released, percent in parentheses (relative to LPS alone)
  activity at 20 µM: 225%
[3]; LPS stimulation
  LPS-mediated cytokine release, IL-1 (in words): actually enhanced
[4]; [8]
  IL-1 Released: 36 ± 7.2 pg/mL
[4]; Aβ1-40 versus LPS stimulation
  Aβ1-40-mediated IL-1β release, selectivity versus LPS (in words): selectively inhibited
[4]; Homo sapiens, Microglia, 50 μM Aβ1-40 + 20 μM inhibitor, read-out: IL-1 Released, percent in parentheses (relative to Aβ1-40 alone)
  activity at 20 µM: 13%
[5]; [9]
  TNF Released: 785 ± 50 pg/mL
[5]; Homo sapiens, Microglia, 10 ng/ml LPS + 20 μM inhibitor, read-out: TNF Released, percent in parentheses (relative to LPS alone)
  activity at 20 µM: 161%
[5]; LPS stimulation
  LPS-mediated cytokine release, TNF (in words): actually enhanced
Human cortical neurons [1]; pretreatment two hours, three days, FIG. 6
  neuronal death resulting from Aβ1-40 exposure (in words): substantially decreased neuronal death
Ca^+2 -independent PLA2
  inhibition of Ca^+2 -independent PLA2 activity: capable of inhibiting
cPLA2
  inhibition of cPLA2: capable of inhibiting

## CN(C)c1ccc(O)c2c1C[C@H]1C[C@H]3[C@H](N(C)C)C(O)=C(C(N)=O)C(=O)[C@@]3(O)C(O)=C1C2=O [Minocycline]
Human cortical neurons [1]; [7]
  Emax: 69%
Human cortical neurons [1]; Homo sapiens, Cortical neurone, 50 μM Aβ1-40, compound 390 nM to 100 μM, 2 h pretreatment and re-added with Aβ, 3 days, n=3, ND = not detected at the concentration range used, read-out: IC50 (dose that inhibited Aβ-mediated neurotoxicity by 50%)
  pIC50: 4.15
Human cortical neurons [6]
  TD10 (concentration giving 10% loss of neuronal survival): 78 µM

## CCCCCCCCCCCC=CC(C)(C)C=CCCCC(=O)O [DEDA, 7,7,-dimethyl-5,8-eicosadienoic acid]
Human cortical neurons [1]; [7]
  Emax: 19%

## CCCCCCCCCCCCCCCC(=O)C(F)(F)F [palmitoyl trifluoromethyl ketone]
Ca^+2 -independent PLA2
  inhibition of Ca^+2 -independent PLA2 activity: capable of inhibiting
cPLA2
  inhibition of cPLA2: capable of inhibiting
